Experiments:
[1] = test system: Type 1 iodothyronine deiodinase; assay: Microarray gene expression, mouse intestine: Type 1 iodothyronine deiodinase; type: in vivo; settings: diet 1 ppm Se, 100 days, vs selenium-deficient diet
Source text: (§1) Animal Care. Male C57BL/6J mice were housed singly and started on the experimental diets described below immediately after weaning (21 days of age). The mice were maintained in the Shared Aging Rodent Facility at the William S. Middleton Memorial Veterans Administration Medical Center (Madison, Wis.). Temperature and humidity were maintained at constant levels. Room light was controlled to provide 12-hr cycles of light and dark.
(§2) Experimental diets were created by Harlan Teklad (Madison, Wis.). Selenium content of the diets was determined by Covance Inc. (Madison, Wis.). Five (5) animals were included in each of the following treatment groups: a diet deficient in selenium (SD); a diet supplemented with selenomethionine (SM, obtained from Sigma,St. Louis, Mo.) such that the final selenium content of the diet was one (1) part per million; a diet supplemented with sodium selenite (SS, Sigma) such that the final concentration of selenium in this diet was one (1) part per million; or a diet supplemented with the yeast selenium SEL-PLEX (SP, Alltech, Lexington, Ky.), such that the final concentration of selenium in this diet was one (1) part per million. SEL-PLEX. […]
(§3) Tissue sample preparation and microarray analysis. […] For intestinal expression studies, the intestine was flushed twice with saline solution and small intestine was measured and divided in three equal segments. […]

[2] = test system: Growth arrest and DNA-damage-inducible 45 gamma (Gadd45g); assay: Microarray gene expression, mouse intestine: Gadd45g; type: in vivo; settings: diet 1 ppm Se, 100 days, vs selenium-deficient diet, negative = down-regulated
Source text: as §1, §2, §3

[3] = test system: sprouty homolog 2 gene (Spry2); assay: Microarray gene expression, mouse intestine: Spry2; type: in vivo; settings: Example 7 (intestine); diet 1 ppm Se, 100 days; relative to Se-deficient controls
Source text: as §1, §2, §3

[4] = test system: Selenoprotein W (SelW); assay: Microarray gene expression, mouse intestine: SelW; type: in vivo; settings: diet 1 ppm Se, 100 days, vs selenium-deficient diet
Source text: as §1, §2, §3

[5] = test system: type II iodothyronine deiodinase (Dio2); assay: Microarray gene expression, mouse intestine: Dio2; type: in vivo; settings: Example 4 (intestine); diet 1 ppm Se, 100 days; vs selenium-deficient diet
Source text: as §1, §2, §3

[6] = test system: Complement component 1, q subcomponent, gamma polypeptide, C1qg; assay: Microarray gene expression, mouse cerebral cortex: C1qg; type: in vivo; settings: diet 1 ppm Se, 100 days, vs selenium-deficient diet, negative = down-regulated, * p<0.01
Source text: as §1, §2, §3

[7] = test system: Glyoxalase 1 (Glo1); assay: Microarray gene expression, mouse intestine: Glo1; type: in vivo; settings: Example 4 (intestine); diet 1 ppm Se, 100 days; vs selenium-deficient diet; p<0.01 for SEL-PLEX
Source text: as §1, §2, §3

[8] = test system: Neurogenin 3 (Neurog3); assay: Microarray gene expression, mouse intestine: Neurog3; type: in vivo; settings: Example 6 (intestine); diet 1 ppm Se, 100 days; vs selenium-deficient diet
Source text: as §1, §2, §3

[9] = test system: selenoprotein N1 (Sepn1); assay: Microarray gene expression, mouse intestine: Sepn1; type: in vivo; settings: diet 1 ppm Se, 100 days, vs selenium-deficient diet, p<0.02 for SEL-PLEX
Source text: as §1, §2, §3

[10] = test system: transforming growth factor beta 2 (TGF-β2); assay: Microarray gene expression, mouse intestine: TGF-β2; type: in vivo; settings: Example 5 (intestine); diet 1 ppm Se, 100 days; compared to controls
Source text: as §1, §2, §3

[11] = Body weight of mice on selenium diets; type: in vivo, mouse
Source text: as §1
Experimental diets were created by Harlan Teklad (Madison, Wis.). Selenium content of the diets was determined by Covance Inc. (Madison, Wis.). […]
Thus, it was an object of the present invention to determine whether compositions and methods of the present invention could alter the expression levels (e.g., mRNA levels) of various genes. One group of genes analyzed were genes classically associated with selenium. As described above, the expression levels of genes were analyzed between mice with and without dietary selenium, or, between mice fed different sources of selenium) (See, e.g., Table 1, below).

[12] = test system: LIM homeobox protein 8 gene (Lhx8); assay: Microarray gene expression, mouse intestine: Lhx8; type: in vivo; settings: Example 5 (intestine); diet 1 ppm Se, 100 days; vs Se-deficient subjects; p<0.01 for SEL-PLEX
Source text: as §1, §2, §3

[13] = test system: CORS-26; assay: Microarray gene expression, mouse cerebral cortex: CORS-26; type: in vivo; settings: Example 10 (cerebral cortex); diet 1 ppm Se, 100 days; vs selenium-deficient diet
Source text: as §1, §2, §3

[14] = test system: SelR (Selenoprotein X1); assay: Microarray gene expression, mouse intestine: SelR; type: in vivo; settings: diet 1 ppm Se, 100 days, vs selenium-deficient diet, p<0.01 Sod-sel, p<0.05 SEL-PLEX
Source text: as §1, §2, §3

[15] = Chick brain Se concentration at day 14 (offspring of treated hens); type: in vivo, chicks (offspring of white-egg-laying hens); settings: chicks of hens fed 0.3 ppm Se; chicks grown 14 days on Se deficient diet; pooled brains; basal 786 ppb
Experimental: (§4) Compositions and methods of the present invention were utilized to evaluate the effects of various Se sources on the accumulation of brain Se concentrations in hens and their offspring.
(§5) The study was conducted at the Coldstream Research Facility from Jun. 28, 2004 until Nov. 16, 2004. Six dietary treatments were fed to a total of 48 hens (r=8) that were bred on three consecutive days starting on Sep. 16, 2004.
(§6) The dietary treatments were as follows: Basal (no added Se) Selenite (0.3 ppm) SEL-PLEX (0.3 ppm) Tepsel (0.3 ppm) Se 2000 (0.3 ppm) Selenosource (0.3 ppm)
(§7) Chicks that hatched were divided into two groups. Half of the chicks were killed for brain collection and the remaining chicks were allowed to grow for 14 days on a Se deficient diet, at which time they were terminated for brain collection. Hen brains were analyzed for Se content individually, whereas the chick brains were homogenized and pooled because of small sample size.

[16] = Hen brain Se concentration after dietary selenium sources; type: in vivo, White-Egg-Laying Hens; settings: 0.3 ppm Se in hen diet; basal diet 870 ppb; Selenosource one sample only
Experimental: as §4, §5, §6, §7

[17] = test system: Cathepsin Z; assay: Microarray gene expression, mouse cerebral cortex: Cathepsin Z; type: in vivo; settings: diet 1 ppm Se, 100 days, relative to Se-deficient mice, negative = down-regulated, * significant
Source text: as §1, §2, §3

[18] = test system: Glutathione S-transferase, mu3 (Gstm3); assay: Microarray gene expression, mouse intestine: Gstm3; type: in vivo; settings: diet 1 ppm Se, 100 days, vs Se-deficient diets, negative = down-regulated, NS = not significant
Source text: as §1, §2, §3

[19] = test system: Gst zeta 1 (Gstz1); assay: Microarray gene expression, mouse brain: Gstz1; type: in vivo; settings: diet 1 ppm Se, 100 days, relative to Se-deficient animals, negative = down-regulated, * significant
Source text: as §1, §2, §3

[20] = test system: Glutathione S-transferase, theta 2 (Gstt2); assay: Microarray gene expression, mouse intestine: Gstt2; type: in vivo; settings: diet 1 ppm Se, 100 days, vs Se-deficient diets, negative = down-regulated, NS = not significant
Source text: as §1, §2, §3

[21] = test system: Thioredoxin Reductase 1 gene; assay: Microarray gene expression, mouse intestine: Thioredoxin Reductase 1; type: in vivo; settings: diet 1 ppm Se, 100 days, vs selenium-deficient diet, all p <0.01
Source text: as §1, §2, §3

[22] = test system: Glutathione S-transferase, mu2 (Gstm2); assay: Microarray gene expression, mouse intestine: Gstm2; type: in vivo; settings: diet 1 ppm Se, 100 days, vs Se-deficient diets, negative = down-regulated, NS = not significant
Source text: as §1, §2, §3

[23] = test system: calpain-5; assay: Expression level of calpain genes after selenium administration; type: in vivo; settings: tissue not stated; + up, − down; * not explained at this place
Experimental: Compositions and methods of the present invention were analyzed to determine if they were capable of altering the expression levels of calpain genes. Compositions comprising various forms of selenium (e.g., SeM, Sod-sel, and SEL-PLEX) were administered to subjects and the expression levels of calpain genes monitored. The expression level of calpain-5 was altered by treatment in the following ways: free selenomethionine (SM) +1.32*, Sod-sel −1.07, SEL-PLEX −1.44*.

[24] = test system: Glutathione S-transferase, alpha 3 (Gsta3); assay: Microarray gene expression, mouse intestine: Gsta3; type: in vivo; settings: diet 1 ppm Se, 100 days, vs Se-deficient diets, negative = down-regulated, NS = not significant
Source text: as §1, §2, §3

[25] = test system: Glutathione S-transferase, mu1 (Gstm1); assay: Microarray gene expression, mouse intestine: Gstm1; type: in vivo; settings: diet 1 ppm Se, 100 days, vs Se-deficient diets, negative = down-regulated, NS = not significant
Source text: as §1, §2, §3

C[Se]CC[C@H](N)C(=O)O [SeM, selenomethionine]
Fold increase in expression level of Type 1 iodothyronine deiodinase [1]: 2.0 fold | FC (fold change) of Gadd45g expression [2]: −1.5 (p < 0.05) fold | Fold reduction in Spry2 gene expression [3]: no alteration | Fold upregulation of Selenoprotein W (SelW) expression [4]: not significantly altered | Fold down-regulation of Dio2 expression [5]: no ability to alter | FC (fold change) of C1qg expression [6]: 1.0 fold | Fold reduction of Glo1 expression [7]: not significantly affected | Fold upregulation of Neurog3 expression [8]: no significant alteration | Fold increase of selenoprotein N1 (Sepn1) gene expression [9]: not significantly affected | Fold upregulation of TGF-β2 expression [10]: not altered | Body weights of mice ([11]; mouse, in vivo): No significant differences | Fold upregulation of Lhx8 expression [12]: not significantly different | Fold reduction in expression of CORS-26 [13]: no alteration | Fold upregulation of SelR gene expression [14]: not significantly affected

O=[Se](O)O [Selenite]
Chick Brain Se Concentration at day 14 [15]: 784 ppb | Hen Brain Se Concentration [16]: 850 ppb

O=[Se](O)O [Sod-sel, sodium selenite]
Fold increase in expression level of Type 1 iodothyronine deiodinase [1]: 2.8 fold | FC (fold change) of Gadd45g expression [2]: −2.0 (p < 0.01) fold | FC (fold change) of Cathepsin Z expression [17]: −1.30* fold | FC (fold change) of Gstm3 expression [18]: −2.7 fold | Fold upregulation of Selenoprotein W (SelW) expression [4]: 5.1 fold | FC (fold change) of Gstz1 expression in brain [19]: −1.3 fold | FC (fold change) of Gstt2 expression [20]: −1.3 fold | Fold increase in expression of the Thioredoxin Reductase 1 gene [21]: 1.7 fold | FC (fold change) of Gstm2 expression [22]: −2.1 fold | Alteration of expression level of calpain-5 [23]: −1.07 | Body weights of mice ([11]; compared among selenium-deficient, Se-meth, Sod-sel and SEL-PLEX diets (FIG. 1)): No significant differences | FC (fold change) of Gsta3 expression [24]: −2.3 fold | FC (fold change) of Gstm1 expression [25]: −2.4 fold | Fold upregulation of SelR gene expression [14]: 1.3 fold

— patent US20110038889A1, “METHODS AND COMPOSITIONS FOR ALTERING CELL FUNCTION” (ALLTECH, INC., priority 2005, published 2011)
